Assay results taken from PubChem BioAssay (NCI).
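Five compound concentrations were applied to cells in 96-well plates for 48 hours; endpoints were derived by simple linear interpolation of the resulting dose-response curve. GI50 = concentration required for 50% inhibition of growth. TGI: total growth inhibition.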

Experiments:
Assay in all cases: NCI anticancer screen, dose series, 48 h
[1] = tested on: HCT-15 colon
[2] = tested on: T-47D breast
[3] = tested on: SK-MEL-28 melanoma
[4] = tested on: SF-295 CNS
[5] = tested on: ACHN renal
[6] = tested on: HT29 colon
[7] = tested on: 786-0 renal
[8] = tested on: RPMI-8226 leukemia
[9] = tested on: SR leukemia
[10] = tested on: MDA-MB-231 breast
[11] = tested on: SF-268 CNS
[12] = tested on: IGROV1 ovarian
[13] = tested on: HCT-116 colon
[14] = tested on: KM12 colon
[15] = tested on: SN12C renal
[16] = tested on: UACC-257 melanoma
[17] = tested on: MALME-3M melanoma
[18] = tested on: A549 NSCLC
[19] = tested on: HCC-2998 colon
[20] = tested on: CCRF-CEM leukemia
[21] = tested on: LOX IMVI melanoma
[22] = tested on: OVCAR-5 ovarian
[23] = tested on: SF-539 CNS
[24] = tested on: UACC-62 melanoma
[25] = tested on: PC-3 prostate
[26] = tested on: SNB-19 CNS
[27] = tested on: NCI/ADR-RES ovarian
[28] = tested on: SK-MEL-5 melanoma
[29] = tested on: SNB-75 CNS
[30] = tested on: NCI-H460 lung
[31] = tested on: K-562 leukemia
[32] = tested on: HOP-92 NSCLC
[33] = tested on: M14 melanoma
[34] = tested on: SW-620 colon
[35] = tested on: MDA-MB-435
[36] = tested on: NCI-H23 lung
[37] = tested on: U251 CNS
[38] = tested on: BT-549 breast
[39] = tested on: CAKI-1 renal
[40] = tested on: OVCAR-8 ovarian
[41] = tested on: OVCAR-4 ovarian
[42] = tested on: MOLT-4 leukemia
[43] = tested on: HS 578T breast
[44] = tested on: UO-31 renal
[45] = tested on: COLO 205 colon
[46] = tested on: RXF 393 renal
[47] = tested on: SK-OV-3 ovarian
[48] = tested on: NCI-H522 lung
[49] = tested on: TK-10 renal
[50] = tested on: HOP-62 NSCLC
[51] = tested on: MCF7 breast
[52] = tested on: DU-145 prostate
[53] = tested on: NCI-H226 lung
[54] = tested on: SK-MEL-2 melanoma
[55] = tested on: OVCAR-3 ovarian
[56] = tested on: A498 renal
[57] = tested on: HL-60(TB) leukemia

Cc1cc(=O)n2nnc3c4ccccc4ccc3n12
GI50 [1]: 2.86 µM | TGI [1]: 10.4 µM | GI50 [2]: 1.38 µM | TGI [2]: 3.14 µM | GI50 [3]: 13.9 µM | TGI [3]: 27.1 µM | GI50 [4]: 14.8 µM | TGI [4]: 30.2 µM | GI50 [5]: 1.58 µM | TGI [5]: 2.97 µM | GI50 [6]: 2.36 µM | TGI [6]: 5.57 µM | GI50 [7]: 8.25 µM | TGI [7]: 20.6 µM | GI50 [8]: 0.959 µM | TGI [8]: 4.03 µM | GI50 [9]: 2.28 µM | TGI [9]: 13.7 µM | GI50 [10]: 11.4 µM | TGI [10]: 23.7 µM | GI50 [11]: 11 µM | TGI [11]: 23.1 µM | GI50 [12]: 1.96 µM | TGI [12]: 4.52 µM | GI50 [13]: 1.85 µM | TGI [13]: 3.46 µM | GI50 [14]: 10.6 µM | TGI [14]: 22.6 µM | GI50 [15]: 7.34 µM | TGI [15]: 21.5 µM | GI50 [16]: 13 µM | TGI [16]: 25.7 µM | GI50 [17]: 2.08 µM | TGI [17]: 8.19 µM | GI50 [18]: 10.8 µM | TGI [18]: 23.8 µM | GI50 [19]: 16.5 µM | TGI [19]: 30.9 µM | GI50 [20]: 1.06 µM | TGI [20]: 3.91 µM | GI50 [21]: 4.42 µM | TGI [21]: 16.2 µM | GI50 [22]: 1.84 µM | TGI [22]: 14.7 µM | GI50 [23]: 3.5 µM | TGI [23]: 16.7 µM | GI50 [24]: 5.3 µM | TGI [24]: 18.6 µM | GI50 [25]: 4.22 µM | TGI [25]: 17.7 µM | GI50 [26]: 12.8 µM | TGI [26]: 25.4 µM | GI50 [27]: 3.87 µM | TGI [27]: 43.9 µM | GI50 [28]: 12.8 µM | TGI [28]: 25.7 µM | GI50 [29]: 14.9 µM | TGI [29]: 29.9 µM | GI50 [30]: 13.9 µM | TGI [30]: 30.4 µM | GI50 [31]: 1.8 µM | TGI [31]: 7.85 µM | GI50 [32]: 0.942 µM | TGI [32]: 15 µM | GI50 [33]: 13.5 µM | TGI [33]: 27.1 µM | GI50 [34]: 1.63 µM | TGI [34]: 3.11 µM | GI50 [35]: 14.3 µM | TGI [35]: 29.9 µM | GI50 [36]: 12.4 µM | TGI [36]: 27.9 µM | GI50 [37]: 14.9 µM | TGI [37]: 28.1 µM | GI50 [38]: 7.76 µM | TGI [38]: 21.1 µM | GI50 [39]: 1.64 µM | TGI [39]: 3.33 µM | GI50 [40]: 2.03 µM | TGI [40]: 6.97 µM | GI50 [41]: 1.5 µM | TGI [41]: 3.27 µM | GI50 [42]: 3.39 µM | TGI [42]: 19.5 µM | GI50 [43]: 15.2 µM | TGI [43]: 49 µM | GI50 [44]: 1.2 µM | TGI [44]: 2.72 µM | GI50 [45]: 2.97 µM | TGI [45]: 8.77 µM | GI50 [46]: 10.8 µM | TGI [46]: 22.8 µM | GI50 [47]: 2.72 µM | TGI [47]: 20.3 µM | GI50 [48]: 1.54 µM | TGI [48]: 2.93 µM | GI50 [49]: 1.68 µM | TGI [49]: 3.2 µM | GI50 [50]: 6.11 µM | TGI [50]: 20.9 µM | GI50 [51]: 2.86 µM | TGI [51]: 10.5 µM | GI50 [52]: 11.3 µM | TGI [52]: 23.4 µM | GI50 [53]: 7.64 µM | TGI [53]: 27.1 µM | GI50 [54]: 16.5 µM | TGI [54]: 30.6 µM | GI50 [55]: 1.79 µM | TGI [55]: 3.37 µM | GI50 [56]: 11.2 µM | TGI [56]: 23.2 µM | GI50 [57]: 11.5 µM | TGI [57]: 37.2 µM
